In brackets after ≈: the same amount, converted by molar mass. Like-named read-outs stand apart in the source and are kept apart here.
Key:
Sir2Af2 = molecular target: T1, Sir2Af2 (Archaeoglobus fulgidus, UniProt O30124); conditions: cited from earlier work
T1 sequence (O30124 1-253): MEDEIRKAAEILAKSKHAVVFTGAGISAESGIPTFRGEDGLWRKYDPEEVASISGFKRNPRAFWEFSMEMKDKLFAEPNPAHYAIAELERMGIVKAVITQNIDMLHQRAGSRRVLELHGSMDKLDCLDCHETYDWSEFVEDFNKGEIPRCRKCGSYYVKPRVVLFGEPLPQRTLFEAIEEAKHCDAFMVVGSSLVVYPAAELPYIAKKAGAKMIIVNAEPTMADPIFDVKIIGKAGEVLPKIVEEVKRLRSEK

[1] = Thermodynamic solubility measurement by HPLC in HDAC buffer / DMSO; assay type: physicochemical; conditions: for solubility at 48 h: 24.5 °C, thermodynamic from solid, ambient (24-25° C.); for thermodynamic solubility (in words): solubility protocol of b230
Description: DHP-1 in up to 20% DMSO/HDAC was insoluble. In brief, HPLC (Agilent 1100 series) was used to perform the test. Calibration curves were established using concentration range covering the estimated solubility's. The samples were then analyzed by a well-calibrated HPLC method. The linearity was measured by R-values at least >0.99. The estimated detection limit was around 0.002 mg/mL (2 μg/mL) based on acceptable N/S ratio. Over saturated samples were prepared by dosing excess compounds into the solvent mixtures of interest. The samples were equilibrated at ambient (24-25° C.) for 48 hours and then analyzed by the same HPLC method.

Human Sirt3 protein [2] = molecular target: T2, Human Sirt3 protein (Homo sapiens, UniProt Q9NTG7); test: Label-free HPLC endpoint assay of Sirt3 deacetylation activity (DHP-1, DHP-2; FdL/p53 peptide); assay type: biochemical; conditions: for % product formation / % Sirt3 Activity: 50 uM DHP-1 in 5% DMSO; for % Sirt3 Activity: control = 100.0
T2 construct: hexa-histidine (N); host or cells: E. coli Arctic Express (DE3)
T2 sequence (Q9NTG7 102-399): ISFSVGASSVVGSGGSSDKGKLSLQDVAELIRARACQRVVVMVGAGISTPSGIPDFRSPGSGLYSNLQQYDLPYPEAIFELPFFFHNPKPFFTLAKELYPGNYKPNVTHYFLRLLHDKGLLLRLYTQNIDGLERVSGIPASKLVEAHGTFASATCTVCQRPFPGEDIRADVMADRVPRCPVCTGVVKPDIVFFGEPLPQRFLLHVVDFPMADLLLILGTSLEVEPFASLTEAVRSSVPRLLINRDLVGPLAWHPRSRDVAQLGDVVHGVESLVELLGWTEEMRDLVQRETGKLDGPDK
Description: Reactions for DHP-1 used a similar protocol, but were carried out at a single concentration of modulator and varying concentrations of NAD+ and fluorolabeled peptide at 37° C. in a 50 μl reaction volume containing 50 mM Tris/Cl (pH=8), 137 mM NaCl, and 5% DMSO. [DHP] was 50 uM.

recombinant human SIRT3 = molecular target: T3, recombinant human SIRT3 (Homo sapiens, UniProt Q9NTG7); test: High-throughput fluorimetric initial rate / endpoint assay of SIRT3 deacetylation with fluorolabeled p53 peptide; assay type: biochemical
T3 construct: purchased Enzo Life Sciences AK 557
T3 sequence (Q9NTG7 1-399): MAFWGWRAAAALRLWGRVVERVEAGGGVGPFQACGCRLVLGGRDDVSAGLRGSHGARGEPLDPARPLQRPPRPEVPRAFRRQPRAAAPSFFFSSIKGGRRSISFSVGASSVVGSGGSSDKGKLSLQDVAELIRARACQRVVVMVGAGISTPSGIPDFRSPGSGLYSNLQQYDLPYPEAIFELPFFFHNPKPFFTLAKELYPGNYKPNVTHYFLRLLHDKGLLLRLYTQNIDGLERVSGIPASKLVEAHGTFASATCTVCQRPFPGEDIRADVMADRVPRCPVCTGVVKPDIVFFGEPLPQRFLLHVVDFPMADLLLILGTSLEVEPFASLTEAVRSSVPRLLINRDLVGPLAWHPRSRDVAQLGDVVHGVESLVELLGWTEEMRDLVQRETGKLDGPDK
Description: The specified concentration of the test compound was chosen to be 50 uM. Initial deacylation rates at DHP-1's were measured at varying [NAD+] and [NAM] according to the following methods.
The steady state parameters (Km and kcat) and catalytic efficiency (kcat/Km) of deacetylase activity of recombinant human SIRT3 were determined using a fluorimetric assay. The deacetylation activities were measured by using the SIRT3 Fluorimetic Drug Discovery Kit (AK 557, Enzo Life Sciences). This assay system allows detection of a fluorescent signal upon deacetylation of an acetylated substrate peptide, comprising amino acids 317-320 of human p53 (Gln-Pro-Lys-LysAc) for SIRT3, when treated with developer. The intensity of fluorescence was measured on a fluorometric microplate reader (Fluoroskan AscentH FL, Thermo Lab Systems) with excitation set at 355 nm and emission detection set at 460 nm. The initial rate of the NAD^+-dependent deacetylation activity of SIRT3 enzyme was measured at different concentrations of NAD^+. The reactions were carried out at 37° C. in a 50 μl reaction volume containing 50 mM Tris/Cl (pH=8), 137 mM NaCl, and 250 uM fluorolabeled peptide substrate. Reactions carried out in the presence of DHP-1 included 5% DMSO. The raw data were fitted to the Michaelis-Menten equation and defined inhibition models by using GraphPad Prism (GraphPad Software, Inc, CA) to obtain the kinetic constants. […] In assays of allosteric modulators, artifacts reported in the presence of the fluorescent label were later shown to occur due to the hydrophobic fluorophore participating in the modulator's allosteric activation mechanism.
This assay was used to measure the potency of modulation of SIRT3 by DHP-1 in a high-throughput endpoint format. All reagents are diluted on ice in the following reaction buffer: 50 mM Tris/Cl, pH 8.0, 137 mM NaCl, 2.7 mM KCl, 1 mM MgCl2, and 1 mg/mL BSA. Thus for each reaction well, 5U of SIRT3 enzyme is added to 500 μM NAD^+, 250 μM fluorolabeled peptide substrate, and DHP-1 at a given concentration (0-100 uM) in a total reaction volume of 50 μL. After an hour incubation at 37° C., the reaction is stopped upon addition of 1× Developer for a final reaction volume of 100 μL. The reaction is incubated at 37° C. for an additional 15 min and then read on the plate reader. Positive controls contained only enzyme, substrate, NAD^+, and DMSO while background controls contained substrate, NAD^+, and DMSO only.

Human Sirt3 protein [3] = molecular target: T2, Human Sirt3 protein; test: Binding analysis by microscale thermophoresis (MST); conditions: 5% DMSO, 25° C.
Description: Human Sirt3 protein was labeled with Alexa647 fluorophore by NHS ester chemistry in 20 mM HEPES, 200 mM NaCl, 0.5 mM TCEP at pH 7.5. A 2:1 molar excess of reactive dye was used over protein, in order to preferentially label one lysine within the protein. Free dye was removed using a size exclusion column and the labeled protein (Sirt3 NT647) was buffer exchanged into 50 mM Tris-HCl pH 8.0, 137 mM NaCl, 2.7 mM KCl, 1 mM MgCl2, 5% DMSO, 0.05% Pluronic F-127. A final concentration of 2 nM Sirt3 NT647 was titrated with varying concentrations of the modulator and thermophoresis was measured (excitation wavelength 650 nm, emission wavelength 670 nm, LED-power 15%, laser-power 80%) using a Monolith NT. 115 Pico (NanoTemper Technologies) at 25° C. in the absence and presence of various concentrations of NAD+, acetylated and de-acetylated peptide (K122-MnSOD peptide). Dissociation constants were determined with GraFit7 (Erithacus Software) by nonlinear fitting using a 1:1 binding model. Each experiment was repeated at least twice.

[4] = 2% DMSO in HDAC buffer, aqueous buffer, 2% DMSO/HDAC
[5] = 5% DMSO in HDAC buffer, aqueous with cosolvent or surfactant or cyclodextrin, 5% DMSO/HDAC
[6] = 100 uM NAD + 100 uM FdL Peptide
[7] = 200 uM NAD + 100 uM FdL Peptide
[8] = 500 uM NAD + 250 uM FdL Peptide

## NC(=O)c1cccnc1 [NAM, nicotinamide]
Sir2Af2
  ΔGbind,NAM: -4.1 kcal/mol

## O=C(O)C1=CN(Cc2ccccc2)C=C(C(=O)O)C1c1ccccc1 [DHP-2, N-Benzyl-3,5-dicarboxy-4-phenyl-1,4-dihydropyridine]
[1]; [4]
  solubility at 48 h: 1740 µg/mL (≈ 5.2 mM)
[1]; [5]
  solubility at 48 h: 2140 µg/mL (≈ 6.38 mM)
[1]; 10% DMSO in HDAC buffer, aqueous with cosolvent or surfactant or cyclodextrin, 10% DMSO/HDAC
  solubility at 48 h: 2200 µg/mL (≈ 6.55 mM)
[1]; aqueous buffer, 100% HDAC buffer
  solubility at 48 h: 2300 µg/mL (≈ 6.87 mM)
[1]
  thermodynamic solubility (in words): thermodynamically soluble
Human Sirt3 protein [2]; 3 μM NAD+ and 250 μM peptide substrate, 0-400 μM DHP-2, threshold vapp/v=1.10
  SIRT3 activation in label-free assay: does not activate SIRT3
Human Sirt3 protein [2]; any concentration tested, label-free assay (FIG. 8 vs FIG. 10)
  rate enhancement versus predicted for Km,NAD+ reduction (x = 0.7, 0.8, 0.9): does not induce a rate enhancement exceeding those predicted

## NC(=O)c1ccncc1 [isonicotinamide, reference compound]
Recombinant human SIRT3; same sirtuin enzyme and peptide substrate, competitive inhibitor of base exchange
  outcome of hit identification: screened out

## C=CCc1ccc(O)c(-c2ccc(O)c(CC=C)c2)c1 [Honokiol, 5,3′-Diallyl-2,4′-dihydroxybiphenyl, reference compound]
[1]; [4]
  solubility at 48 h: 41 µg/mL (≈ 0.154 mM)
[1]; [5]
  solubility at 48 h: 120 µg/mL (≈ 0.451 mM)
Human Sirt3 protein [3]; read-out: Kd, binding to SIRT3 apoenzyme
  Kd: 1010 ± 129 nM
Human Sirt3 protein [3]; read-out: Kd, binding to the enzyme:NAD+ complex
  Kd: 1670 ± 125 nM

## CCOC(=O)C1=CN(Cc2ccccc2)C=C(C(=O)OCC)C1c1ccccc1 [DHP-1, N-Benzyl-3,5-dicarbethoxy-4-phenyl-1,4-dihydropyridine]
Recombinant human SIRT3; 50 uM DHP-1, global fit of mixed inhibition model, varying NAD+ and NAM
  Alpha (apparent, best-fit value): 1.933
Recombinant human SIRT3; 50 uM DHP-1, global fit of mixed inhibition model, varying NAD+ and NAM, 250 uM fluorolabeled peptide
  Vmax (apparent, best-fit value): 0.2118
Recombinant human SIRT3; fluorimetric assays
  net effect on catalytic turnover (vapp versus v): vapp>v
[1]
  thermodynamic solubility (in words): thermodynamically insoluble
[1]; up to 20% DMSO/HDAC
  Solubility: insoluble
Human Sirt3 protein [2]; 50 uM DHP-1, conditions of Table 2, threshold vapp/v=1.10
  SIRT3 activation in label-free assay: does not activate SIRT3
Human Sirt3 protein [2]; [6]
  % product formation: 5.776%
  % Sirt3 Activity: 96.7%
Human Sirt3 protein [2]; [7]
  % product formation: 9.463%
  % Sirt3 Activity: 92.3%
Human Sirt3 protein [2]; [8]
  % product formation: 2.111%
  % Sirt3 Activity: 99.5%
